Experimental data published in patent publication US7935685B2, “Process for preparation of inclusion compounds between a non-steroidal anti-inflammatory drug and betacyclodextrin by microwave treatment” (Chiesi Farmaceutici S.p.A., priority 2001, dated 2011).

Assay: Dissolution rate of piroxicam from the solid phases, dispersed amount method (USP 25, NF 20)
Format: physicochemical
Conditions: 1 L distilled water, 37° C., paddle 50 rpm
Experimental: The dissolution rate of the samples under study was determined by the dispersed amount method according to the USP 25, NF 20, 2002. The test samples were introduced into vessels containing 1 L of distilled water each.
The test was conducted by maintaining the temperature of the dissolving bath at 37° C. and regulating the paddle rotation speed to 50 rpm.
The concentration of the drug in solution was determined at 2-minute intervals by spectrophotometry.
Each sample was analysed in triplicate.

% DISS (percentage compared with the initial dose of PRX in the sample) (T 0 min): 0%
% DISS (percentage compared with the initial dose of PRX in the sample) (T 2 min): 0.052%
% DISS (percentage compared with the initial dose of PRX in the sample) (T 4 min): 0.245%
% DISS (percentage compared with the initial dose of PRX in the sample) (T 6 min): 0.451%
% DISS (percentage compared with the initial dose of PRX in the sample) (T 8 min): 0.619%
% DISS (percentage compared with the initial dose of PRX in the sample) (T 10 min): 0.851%
% DISS (percentage compared with the initial dose of PRX in the sample) (T 20 min): 2.051%
% DISS (percentage compared with the initial dose of PRX in the sample) (T 30 min): 3.340%
% DISS (percentage compared with the initial dose of PRX in the sample) (T 40 min): 4.694%
% DISS (percentage compared with the initial dose of PRX in the sample) (T 50 min): 6.087%
% DISS (percentage compared with the initial dose of PRX in the sample) (T 60 min): 7.635%
Compound: CN1C(C(=O)Nc2ccccn2)=C(O)c2ccccc2S1(=O)=O [PRX, piroxicam]
